Tests used:
[1] = LUMO energy level by cyclic voltammetry; format: physicochemical; conditions: for LUMO Energy Level: cyclic voltammetry, onset of first reduction, ferrocene internal reference, o-dichlorobenzene/acetonitrile 4:1
Protocol: The electronic property of the synthesized fullerenes are characterized by cyclic voltammetry (CV) using a Bio-Logic Multi-channel Potentiostat with Pt as a counter electrode, Ag/Ag+ as a reference electrode and ferrocene as an internal reference, with 4:1 v/v ratio of o-dichlorobenzene and acetonitrile as solvent and 0.1 M tetrabutylammonium hexafluorophosphate as electrolyte at a scan rate of 100 mV/s. […] The LUMO levels are calculated according to the following equation 2 using the onset of the first reduction. The data are listed in Table 2, LUMOs of C60, C70, PCBM, Bis-PCBM, ICMA and ICBA were measured under the same condition and listed too as reference.
ELUMO=[(EFLN(Vs Ag/Ag+)(E^1/2Ferrocene(Vs Ag/Ag+)]−4.8 eV (equation 2)

[2] = references [15, 18]; cited from earlier work

Q: With “1′,4′-dihydro-naphtho[2′,3′:1,2][5,6]fullerene-C60 [IC60MA]” as the molecule, how does the “LUMO increase compared to pristine C60” value [1] read?
A: about 0.1 eV

Q: What about the “LUMO Energy Level” value [1] of the same molecule?
A: −3.76 eV

Q: Which “LUMO increase compared to pristine C60” value [1] does the source give for COC(=O)CCCC1(c2ccccc2)C23c4c5c6c7c8c9c(c%10c%11c2c2c%12c4c4c%13c5c5c7c7c8c8c%14c9c%10c9c%10c%11c2c2c%11c%12c4c4c%12c%13c5c5c7c7c8c8c%14c9c9c%10c2c2c%11c4c4c%12c5c7c5c8c9c2c45)C613 (stereo not shown) [PC61BM, [6,6]-phenyl C61-butyric acid methyl ester] here?
A: about 0.1 eV

Q: What about the “LUMO Energy Level” value [1] of the same molecule?
A: −3.80 eV

Q: Which results are given for “bis(1-[3-(methoxycarbonyl)propyl]-1-phenyl)[6.6]C62 [Bis-PC61BM]”?
A: LUMO of bis-addition fullerene higher than LUMO of the mono-addition fullerene (PCBM, ICMA respectively) [2]: about 0.1 eV; LUMO higher than that of PCBM [1]: 0.1 eV; LUMO Energy Level [1]: −3.72 eV

Source: patent publication US20150136233A1, “ORGANIC PHOTOVOLTAIC DEVICES COMPRISING FULLERENES AND DERIVATIVES” (The Regents of the University of California, priority 2013, published 2015)
